Data set [1] is described as follows: Stability of solid forms in stabilization chamber (appearance or XRPD versus initial solid form). Conditions: for Physical stability (solid form): 3.0 g sample, appearance or XRPD compared with initial solid form. It is filed as physicochemical. As to the method:
3.0 g of ruxolitinib free base in different solid forms was stored in a stabilization chamber, and placed in the condition that the temperature and humidity were controlled to at 25° C., 60% RH, and 40° C., 75% RH for […], respectively. The samples were analyzed by appearance or XRPD to check its solid form and compared with its initial solid form.

Data set [2] is described as follows: Storage of crystal in polyethylene self-sealing bag, XRPD pattern. It is filed as physicochemical. The following applies: 30-35° C. for 3 months, transparent polyethylene self-sealing bag, 10.0 g. On the procedure: In addition, 10.0 g of crystal of compound of formula I of Example 1 was placed in a transparent polyethylene self-sealing bag and allowed to stand at 30-35° C. for 3 months.

`N#CC[C@H](C1CCCC1)n1cc(-c2ncnc3[nH]ccc23)cn1` [Foam]: in data set [1] (25° C./60%-RH, 2 hours), the “Physical stability (hygroscopicity observation)” value is recorded as “hygroscopic” and the “Physical stability (solid form)” value is given as “Change of solid form,”. Further, in data set [1] (40° C./75%-RH, 8 hours), the “Physical stability (hygroscopicity observation)” value is recorded as “hygroscopic” and the “Physical stability (solid form)” value is “Change of solid form,”.

With `N#CC[C@H](C1CCCC1)n1cc(-c2ncnc3[nH]ccc23)cn1` [Compound of Formula I of Example 1, ((3R)-3-cyclopentyl-3-[4-(7H-pyrrolo[2,3-d]pyrimidin-4-yl)pyrazol-1-yl]propionitrile)·2H2O], the “Stability of crystalline form by XRPD” value in data set [2] is “remains stable”. Further, in data set [1] (25° C., 60% RH for 2 hours and 40° C., 75% RH for 8 hours, summary of Table 4), the “Stability compared with ruxolitinib foam and amorphous form of Example 5” value is recorded as “better stability”. Further, the “Physical stability (solid form)” value is given as “No change of solid form” in data set [1] (25° C./60%-RH, 2 hours) and “No change of solid form” in data set [1] (40° C./75%-RH, 8 hours).

(Values after US20240166654A1, “RUXOLITINIB CRYSTAL AND PHARMACEUTICAL COMPOSITION THEREOF” (ZHEJIANG AUSUN PHARMACEUTICAL CO., LTD., priority 2022, published 2024).)
